# Source: patent US5663165A, “Hypolipidaemic benzothiazepine compounds” (Glaxo Wellcome Inc., priority 1992, dated 1997)
# Tested on: sodium-dependent 3H taurocholate uptake in rat distal ileal brush border membrane vesicles
# Assay: In vitro inhibition of bile acid uptake
# Assay type: biochemical
# Conditions: 10 μM 3H taurocholate, 30 seconds at 24° C., active (sodium-dependent) uptake vs control
# Experimental: In vitro inhibition of bile acid uptake
# Freshly prepared rat distal ileal brush border membrane vesicles (about […] vesicle protein) were incubated for 30 seconds at 24° C. in an incubation mixture comprising 10 μM ^3 H taurocholate, 100 mM NaCl (or KCl) and 80 mM mannitol in 20 mM Hepes Tris pH 7.4. Each test compound was dissolved in ethanol (or water) and then diluted with incubation mixture to an ethanol concentration of not more than 1% v/v. The incubation was terminated by rapid dilution and filtration and the filter washed with an ice-cold isotonic sodium-free buffer.
# The uptake of ^3 H taurocholate was measured by the radioactivity remaining on the filter and converted to pmoles/mg vesicle protein. The active, ie sodium-dependent, uptake was obtained by subtracting the passive uptake measured in 100 mM KCl from the total uptake measured in 100 mM NaCl. The active uptake for each test compound was compared with a control active uptake and the results expressed at % inhibition of bile acid uptake.
structure (smiles),measurement,setting,value
"CCCC[C@]1(CC)CS(=O)(=O)c2ccccc2[C@@H](c2ccccc2)N1 [Synthetic Example 1, (-)-(RR)-3-butyl-3-ethyl-2,3,4,5-tetrahydro-5-phenyl-1,4-benzothiazepine-1,1-dioxide]",% inhibition of bile acid uptake,0.3 μM test compound,55%
same,% inhibition of bile acid uptake,1 μM test compound,69%
same,% inhibition of bile acid uptake,3 μM test compound,85%
same,% inhibition of bile acid uptake,10 μM test compound,96%
